Measurements taken from patent US20230203005A1, “COMPOUNDS WITH TUBULIN POLYMERISATION INHIBITORY ACTIVITY AND IMMUNOMODULATORY PROPERTIES” (UNIVERSITE PARIS-SACLAY, priority 2018, published 2023).

Tests used:
[1] = system: HCT116 colorectal carcinoma; assay: In vitro cytotoxicity (CellTiter-Blue), HCT116; assay type: cell-based; conditions: Homo sapiens, HCT-116; 72 hours of incubation
Protocol: (§1) The biological activity of the compounds of the invention were studied in vitro on […] human cancer cell lines of different tissular origins: HCT116 colorectal carcinoma; A2780R Cisplatin resistant ovary cancer; MiaPaca2 pancreatic cancer; K562R Doxorubicin resistant chronic myeloid leukaemia; JIM-T1 Trastuzumab-DM1 resistant mammal carcinoma; and HepG2 hepatic carcinoma. The cells selected for this study were incubated at 37° C. in the presence of one of the compounds added to the culture medium at different concentrations. The series of experiments carried out made it possible to determine the degree of toxicity of the compound tested, its effect on cell cycle progression as well as its capacity to induce cell death by apoptosis.
All the cell lines were maintained in culture at 37° C. in a humid atmosphere containing 5% CO2. Cell viability was evaluated using the reagent CellTiter-Blue™ (Promega, Wis., USA) while respecting the manufacturer's instructions. The cells were seeded in 96 well culture plates at a rate of 5000 cells per […] in 50 μl of culture medium. After 24 hours of culture, the compounds of generic formula (I) dissolved in DMSO were added individually to each of the wells at a rate of 50 μl per well. All the compounds were tested in triplicate for each concentration defined and each experiment was repeated 3 times. After 72 hours of incubation, 20 μL of resazurin were added to each well. After 2 hours of incubation, the fluorescence emitted was measured at 590 nm after excitation at 560 nm by means of a Victor type fluorescence reader (Perkin-Elmer, USA).

[2] = system: A2780R Cisplatin resistant ovary cancer; assay: In vitro cytotoxicity (CellTiter-Blue), A2780R; assay type: cell-based; conditions: Homo sapiens; 72 hours of incubation
Protocol: as §1
(§2) All the cell lines were maintained in culture at 37° C. in a humid atmosphere containing 5% CO2. Cell viability was evaluated using the reagent CellTiter-Blue™ (Promega, Wis., USA) while respecting the manufacturer's instructions. The cells were seeded in 96 well culture plates at a rate of 5000 cells per […] in 50 μl of culture medium. […] After 2 hours of incubation, the fluorescence emitted was measured at 590 nm after excitation at 560 nm by means of a Victor type fluorescence reader (Perkin-Elmer, USA).

[3] = system: MiaPaca2 pancreatic cancer; assay: In vitro cytotoxicity (CellTiter-Blue), MiaPaca2; assay type: cell-based; conditions: Homo sapiens, MIA PaCa-2; 72 hours of incubation
Protocol: as §1, §2

[4] = system: K562R Doxorubicin resistant chronic myeloid leukaemia; assay: In vitro cytotoxicity (CellTiter-Blue), K562R; assay type: cell-based; conditions: Homo sapiens, K-562R; 72 hours of incubation
Protocol: as §1, §2

[5] = system: JIM-T1 Trastuzumab-DM1 resistant mammal carcinoma; assay: In vitro cytotoxicity (CellTiter-Blue), JIM-T1; assay type: cell-based; conditions: Homo sapiens, JIMT-1; 72 hours of incubation
Protocol: as §1, §2

[6] = system: tubulin; assay: Tubulin polymerisation inhibition (fluorescence assembly assay); assay type: biochemical, ewe; conditions: inhibition of 50% of the maximum assembly rate; tubulin 10 μM
Protocol: The tubulin is purified from ewe brains according to the Shelanski method by 2 assembly-disassembly cycles. The mother solution (15-20 mg/mL), stored at −196° C., is thawed and diluted in the assembly buffer (0.1 M MES, 0.5 mM MgCl2, 1 mM EGTA, and 1 mM GTP, pH 6.6) to have a final concentration of 10 μM. Tubulin assembly is monitored by fluorescence on 96 well plates according to the method of Barron et al. (Anal. Biochem. 315 (2003) 49-56). To the solution of tubulin (10 μM, 100 μL per well) is added the inhibitor (DMSO, 1 μL) and the solution is incubated for 45 min at room temperature. GTP (1 mM final) is next added, the solution is rapidly mixed and the fluorescence (λex=350 nm, λem=440 nm) is measured on a Wallac Victor fluorimeter (Perkin Elmer). The determination of the inhibition of 50% of the maximum assembly rate (IC50) is carried out in duplicate or triplicate over 10 concentrations surrounding the IC50.

[7] = system: HCT116 cells; assay: Analysis of the cell cycle by flow cytometry; assay type: cell-based, human; conditions: HCT116, 24 hours of exposure, 5 nM
Protocol: The HCT116 cells are seeded in 6 well culture plates at a rate of 300,000 cells per well in their respective media described above. After 24 hours of culture, compound 1 was added to each of the wells at different concentrations. After 24 hours of incubation, the cells are collected individually in 15 mL tubes then centrifuged. The cells are next washed twice in cold PBS then re-suspended in 1 mL of PBS, fixed by adding 2 mL of cold absolute ethanol and placed at 4° C. for 1 hour. After centrifugation, the cells are washed twice in PBS then the cell pellet is taken up in 100 μL of 1%. Triton X100. After 30 minutes of incubation at room temperature, 50 μL of RNase A boiled beforehand (1 mg/mL) and 500 μL of propidium iodide (50 μg/mL) are added to each tube and incubated in darkness at room temperature for 30 minutes. The distribution of the number of cells in each of the phases of the cell cycle is next determined by flow cytometry using a FC500 type cytometer (Beckman-Coulter, France).

[8] = system: HCT116 cells; assay: Apoptosis, caspase-3/7 activity (Apo-one assay); assay type: cell-based, human; conditions: HCT116, 24 h treatment, various concentrations
Protocol: In order to clarify whether compound 1 brings about cell death by apoptosis, the intracellular enzymatic activity of caspases 3 and 7 was evaluated in cultures of HCT116 cells exposed for 24 hours to the action of compound 1.
Apoptosis is measured using the “Apo-one homogeneous caspase-3/7 assay” kit (Promega Co, WI, USA) following the manufacturer's recommendations. Briefly, the cells are seeded in 96 well culture plates at a rate of 50,000 cells per well in 100 μL of culture medium. After 24 hours of incubation, the medium is replaced by 100 μL of culture medium containing different concentrations of compound 1 or 0.1% of DMSO (negative control). After 24 hours of treatment, to each well is added 100 μL of reagent containing the caspase substrate and the buffer for the reaction. After 1 hour incubation, the fluorescence emitted by the cells is measured at 527 nm using a Victor type microplate reader (Perkin-Elmer, USA).

[9] = system: HUVECs; assay: Formation of vascular tubes on Matrigel; assay type: cell-based, human; conditions: 5 hours, 10 nM (non-toxic)
Protocol: To determine whether compound 1 disrupts the spatial organisation of endothelial cells into structures similar to vascular capillaries, human endothelial cells (HUVECs) were treated immediately after culturing on Matrigel™ or after 24 hours of culture, in order to allow them to form vascular tubes.
The HUVECs (human endothelial cells derived from the umbilical cord) were cultivated in EGM2 culture medium (Promocell, Germany). The cells were maintained in culture at 37° C. in a humid atmosphere containing 5% CO2.
To evaluate the anti-vascular activity of compound 1, the HUVECs were cultured in 96 well culture plates covered beforehand with an extract of extracellular matrix (Matrigel™, BD Biosciences, Le Pont-de-Claix, France) in which they spontaneously form capillary tubes.
Firstly, we measured the capacity of compound 1 to inhibit the formation of the capillary network. Matrigel™ is deposited in the 96 well culture plates at a rate of 70 μL/well and left to incubate at 37° C. for 45 minutes to enable its polymerisation. 20,000 HUVECs are seeded in each of the wells containing Matrigel™ in the absence or in the presence of different concentrations of compound 1, at a rate of 3 wells per concentration. After 2 hours, 3 hours and 5 hours of incubation at 37° C., the cells are observed and photographed using a TE2000 type optical microscope (Nikon, France), equipped with a camera. […]

[10] = prior art WO 2008/122620; cited from earlier work

IC50 [6]	Structure (SMILES)	IC50 [1]	also measured
1130 ± 160 nM	Cc1cc(N(C)c2ccc3c(c2)c2ccccc2n3C)c2ccccc2n1 [Compound 1, N,9-Dimethyl-N-(2-methylquinolin-4-yl)-9H-carbazol-3-amine]	0.07 ± 0.09 nM	IC50 [2]: 0.54 ± 0.094 nM; IC50 [3]: 0.47 ± 0.01 nM; IC50 [4]: 0.277 ± 0.017 nM; IC50 [5]: 0.36 ± 0.02 nM; Effect on cell cycle [7]: blocks cellular division in the G2/M phase; Induction of apoptosis (caspases 3 and 7 activity) [8]: strong induction of apoptosis; Number of vascular tubes [9]: very important decrease in the number of vascular tubes
1400 ± 510 nM	CN(c1ccc2c(c1)c1ccccc1n2C)c1cc(C#N)nc2ccccc12 [Compound 2, 4-(Methyl(9-methyl-9H-carbazol-3-yl)amino)quinoline-2-carbonitrile]	12 ± 0.8 nM	
	CN(c1ccc2c(c1)c1ccccc1n2C)c1ccnc2ccccc12 [Compound 4, N,9-Dimethyl-N-(quinolin-4-yl)-9H-carbazol-3-amine]		melting point: 222.2 to 228.4 °C
	Cc1cc(N(C)c2ccc3c(c2)c2ccccc2n3Cc2ccccc2)c2ccccc2n1 [Compound 5, 9-Benzyl-N-methyl-N-(2-methylquinolin-4-yl)-9H-carbazol-3-amine]		melting point: 192.7 to 196.5 °C
1480 ± 520 nM	COc1cccc2c(N(C)c3ccc4c(c3)c3ccccc3n4C)cc(C)nc12 [Compound 6, N-(8-Methoxy-2-methylquinolin-4-yl)-N,9-dimethyl-9H-carbazol-3-amine]	21.6 ± 0.71 nM	
	Cc1cc(N(C)c2ccc3c(c2)c2ccccc2n3C)c2cc([N+](=O)[O-])ccc2n1 [Compound 7, N,9-Dimethyl-N-(2-methyl-6-nitroquinolin-4-yl)-9H-carbazol-3-amine]		melting point: 207.6 to 212.4 °C
	CCn1c2ccccc2c2cc(N(C)c3cc(C)nc4ccccc34)ccc21 [Compound 8, 9-Ethyl-N-methyl-N-(2-methylquinolin-4-yl)-9H-carbazol-3-amine]		melting point: 87.4 to 89.6 °C
3800 ± 900 nM	Cc1nc(N(C)c2ccc3c(c2)c2ccccc2n3C)c2ccccc2n1 [Compound 9, N,9-Dimethyl-N-(2-methylquinazolin-4-yl)-9H-carbazol-3-amine]	2.4 ± 0.2 nM	
3140 ± 1040 nM	CN(c1ccc2c(c1)c1ccccc1n2C)c1nc(Cl)nc2ccccc12 [Compound 10, N-(2-Chloroquinazolin-4-yl)-N,9-dimethyl-9H-carbazol-3-amine]	1.06 ± 0.2 nM	
2760 ± 500 nM	Cc1cc(N(C)c2ccc3c(c2)c2cc(N)ccc2n3C)c2ccccc2n1 [Compound 14, N3,9-dimethyl-N3-(2-methylquinolin-4-yl)-9H-carbazole-3,6-diamine]	2.88 ± 1.54 nM	
1240 ± 400 nM	Cc1cc(N(C)c2ccc3c(c2)c2ccccc2n3C)c2cccc(O)c2n1 [Compound 15, 2-Methyl-4-(methyl(9-methyl-9H-carbazol-3-yl)amino)quinolin-8-ol]	50.6 ± 0.66 nM	
5760 ± 1470 nM	Cc1cc(N(C)c2ccc3c(c2)c2ccccc2n3C)c2cc(N)ccc2n1 [Compound 16, N4,2-Dimethyl-N4-(9-methyl-9H-carbazol-3-yl)quinoline-4,6-diamine]	24.5 ± 1.92 nM	
1160 ± 310 nM	CN(c1ccc2c(c1)c1ccccc1n2C)c1cc(Cl)nc2ccccc12 [Compound 17, N-(2-Chloroquinolin-4-yl)-N,9-dimethyl-9H-carbazol-3-amine]	16.7 ± 0.38 nM	
1340 ± 450 nM	Cc1cc(N(C)c2ccc3c(ccn3C)c2)c2ccccc2n1 [Compound 18, N,2-Dimethyl-N-(1-methyl-1H-indol-5-yl)quinolin-4-amine]	2 ± 0.04 nM	
2780 ± 1140 nM	CN(c1ccc2c(ccn2C)c1)c1cc(C#N)nc2ccccc12 [Compound 19, 4-(Methyl(1-methyl-1H-indol-5-yl)amino)quinoline-2-carbonitrile]	0.72 ± 0.03 nM	melting point: 173.1 to 174.2 °C
2500 ± 540 nM	CN(c1ccc2c(ccn2C)c1)c1cc(C(F)(F)F)nc2ccccc12 [Compound 20, N-Methyl-N-(1-methyl-1H-indol-5-yl)-2-(trifluoromethyl)quinolin-4-amine]	3.28 ± 0.18 nM	
1190 ± 280 nM	CN(c1ccc2c(ccn2C)c1)c1nc(Cl)nc2ccccc12 [Compound 21, 2-Chloro-N-methyl-N-(1-methyl-1H-indol-5-yl)quinazolin-4-amine]	0.2 ± 0.01 nM	IC50 [2]: 2.34 ± 0.18 nM; IC50 [3]: 0.62 ± 0.016 nM; IC50 [4]: 1.77 ± 0.162 nM; IC50 [5]: 0.52 ± 0.016 nM
	C=C(c1ccc(OC)c(O)c1)c1cc(OC)c(OC)c(OC)c1 [isoCA-4, Isocombretastatin A-4]		Metabolism in the presence of hepatocytes [10]: do not metabolise in the presence of hepatocytes
	C=C(c1ccc(OC)c(N)c1)c1cc(OC)c(OC)c(OC)c1 [isoNH2CA-4, isoaminocombretastatin A-4]		Metabolism in the presence of hepatocytes [10]: do not metabolise in the presence of hepatocytes
